# From patent US20220298146A1, “HETEROCYCLIC DERIVATIVE AND USE THEREOF” (Transthera Sciences (Nanjing), Inc., priority 2019, published 2022)
# Experiments:
# H1299 cell pAxl = biological target: T1, H1299 cell pAxl (Homo sapiens, UniProt P30530); experiment: Inhibitory activity on cell pAxl (H1299 cells, hGAS6 stimulation, Western Blot); assay type: cell-based; conditions: hGAS6 200 ng/mL, tested at 1.1, 3.3, 10 and 30 nM, read-out: Inhibitory Activity on Cell pAx1, IC50
# T1 construct: endogenous in cells; host or cells: H1299
# T1 sequence (P30530 26-894): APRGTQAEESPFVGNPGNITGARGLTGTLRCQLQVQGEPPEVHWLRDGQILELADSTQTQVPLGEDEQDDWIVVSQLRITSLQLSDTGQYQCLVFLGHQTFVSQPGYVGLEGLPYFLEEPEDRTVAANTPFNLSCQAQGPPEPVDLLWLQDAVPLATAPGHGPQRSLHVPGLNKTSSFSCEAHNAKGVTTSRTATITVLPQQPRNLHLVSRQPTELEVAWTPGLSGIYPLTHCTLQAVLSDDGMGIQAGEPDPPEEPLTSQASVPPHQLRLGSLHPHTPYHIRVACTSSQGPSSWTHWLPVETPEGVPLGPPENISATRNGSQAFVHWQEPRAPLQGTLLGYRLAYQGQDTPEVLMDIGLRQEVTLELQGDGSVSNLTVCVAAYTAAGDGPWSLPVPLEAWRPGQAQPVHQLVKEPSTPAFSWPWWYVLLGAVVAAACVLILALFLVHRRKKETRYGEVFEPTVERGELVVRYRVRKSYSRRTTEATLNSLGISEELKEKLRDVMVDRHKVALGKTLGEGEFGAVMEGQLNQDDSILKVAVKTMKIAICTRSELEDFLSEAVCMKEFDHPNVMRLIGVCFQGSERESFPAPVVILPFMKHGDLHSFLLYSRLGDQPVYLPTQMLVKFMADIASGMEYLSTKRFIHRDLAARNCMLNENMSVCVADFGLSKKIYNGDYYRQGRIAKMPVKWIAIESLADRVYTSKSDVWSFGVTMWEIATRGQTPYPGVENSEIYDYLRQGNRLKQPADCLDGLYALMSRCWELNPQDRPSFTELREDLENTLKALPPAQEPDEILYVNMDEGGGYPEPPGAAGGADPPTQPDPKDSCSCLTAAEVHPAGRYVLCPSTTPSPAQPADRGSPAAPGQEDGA
# Description: (§1) H1299 is a non-small cell lung cancer cell.
# (§2) Test samples: the compounds of the present invention, having structures shown above.
# (§3) Test instruments: protein electrophoresis apparatus (made by Bio Rad), membrane transfer apparatus (made by Bio Rad), exposure apparatus (made by Tanon), and CO2 cell incubator (made by Thermo).
# H1299 cells were inoculated into a 6-well plate (containing 10% FBS 1640 medium, 5×10^5 cells per well) and adherently cultivated at 37° C. and 5% CO2 for 18 h. The cells were starved overnight, and compounds with different concentrations were added. The compounds had final concentrations of 1.1 nM, 3.3 nM, 10 nM and 30 nM, with DMSO having a final concentration of 1‰. There was a medium containing 10‰ DMSO in the negative control well. The cells were incubated at 37° C. and 5% CO2 for 60 min, and then hGAS6 (R&D, final concentration: 200 ng/mL) was added to each well. The cells were further incubated for 60 min, and then the total protein of the cells was extracted for Western Blot experiment. IC50 values were calculated with GraphPad 5.0 software, and the inhibitory activities of the compounds on cell pAxl were detected.
# H1299 cell pMer = biological target: T2, H1299 cell pMer (Homo sapiens, UniProt Q12866); experiment: Inhibitory activity on cell pMer (H1299 cells, Human MerMab stimulation, Western Blot); assay type: cell-based; conditions: Human MerMab 200 ng/mL, tested at 0.37, 1.1, 3.3 and 10 nM
# T2 construct: endogenous in cells; host or cells: H1299
# T2 sequence (Q12866 21-999): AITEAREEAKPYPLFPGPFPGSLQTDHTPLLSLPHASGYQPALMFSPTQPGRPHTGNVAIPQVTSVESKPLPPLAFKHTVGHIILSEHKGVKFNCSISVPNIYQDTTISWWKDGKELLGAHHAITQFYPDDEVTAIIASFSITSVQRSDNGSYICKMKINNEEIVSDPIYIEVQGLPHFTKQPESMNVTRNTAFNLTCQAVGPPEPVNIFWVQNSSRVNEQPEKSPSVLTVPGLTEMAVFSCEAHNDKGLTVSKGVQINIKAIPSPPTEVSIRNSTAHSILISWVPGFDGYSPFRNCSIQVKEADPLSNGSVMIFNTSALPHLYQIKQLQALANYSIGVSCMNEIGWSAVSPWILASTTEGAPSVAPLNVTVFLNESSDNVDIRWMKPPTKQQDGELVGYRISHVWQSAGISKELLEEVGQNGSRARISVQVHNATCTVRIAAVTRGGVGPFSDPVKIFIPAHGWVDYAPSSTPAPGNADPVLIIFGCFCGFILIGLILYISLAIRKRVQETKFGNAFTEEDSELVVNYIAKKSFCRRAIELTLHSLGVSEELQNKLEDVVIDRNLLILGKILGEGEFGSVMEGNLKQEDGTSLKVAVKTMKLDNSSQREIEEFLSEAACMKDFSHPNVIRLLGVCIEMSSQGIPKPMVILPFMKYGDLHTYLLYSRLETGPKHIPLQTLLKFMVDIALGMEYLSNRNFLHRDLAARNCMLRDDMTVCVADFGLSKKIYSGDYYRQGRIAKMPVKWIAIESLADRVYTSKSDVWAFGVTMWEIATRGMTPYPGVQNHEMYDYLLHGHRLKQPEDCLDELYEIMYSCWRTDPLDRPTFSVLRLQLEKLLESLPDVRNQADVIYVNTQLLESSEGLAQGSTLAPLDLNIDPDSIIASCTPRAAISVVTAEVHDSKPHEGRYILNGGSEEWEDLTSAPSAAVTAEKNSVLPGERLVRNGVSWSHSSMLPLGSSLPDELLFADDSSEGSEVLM
# Description: as §1, §2, §3
# H1299 cells were inoculated into a 6-well plate (containing 10% FBS 1640 medium, 5×10^5 cells per well) and adherently cultivated at 37° C. and 5% CO2 for 18 h. The cells were starved overnight, and compounds with different concentrations were added. The compounds had final concentrations of 0.37 nM, 1.1 nM, 3.3 nM and 10 nM, with DMSO having a final concentration of 1‰. There was a medium containing 10‰ DMSO in the negative control well. The cells were incubated at 37° C. and 5% CO2 for 60 min, and then Human MerMab (R&D, final concentration: 200 ng/mL) was added to each well. The cells were further incubated for 60 min, and then the total protein of the cells was extracted for Western Blot experiment. Gray analysis was performed on the results with Image J software, and IC50 values were calculated with GraphPad 5.0 software. The inhibitory activities of the compounds on cell pMer were detected.
Structure (SMILES),IC50 (H1299 cell pAxl) [nM],IC50 (H1299 cell pMer) [nM]
"CC(C)n1cc(-c2ccc(F)cc2)c(=O)c(C(=O)Nc2ccc(Oc3ccnc(N)c3Cl)cn2)n1 [Compound 11, N-(5-((2-amino-3-chloropyridin-4-yl)oxy)pyridin-2-yl)-5-(4-fluorophenyl)-1-isopropyl-4-oxo-1,4-dihydropyridazine-3-carboxamide]",< 1.1,1.1
"CC(C)n1cc(-c2ccc(F)cc2)c(=O)c(C(=O)Nc2ncc(Oc3ccnc(N)c3Cl)cn2)n1 [Compound 12, N-(5-((2-amino-3-chloropyridin-4-yl)oxy)pyrimidin-2-yl)-5-(4-fluorophenyl)-1-isopropyl-4-oxo-1,4-dihydropyridazine-3-carboxamide]",3.3,1.1
"CC(C)n1cc(-c2ccc(F)cc2)c(=O)c(C(=O)Nc2ccc(Oc3ccnc(N)c3Cl)nc2)n1 [Compound 13, N-(6-((2-amino-3-chloropyridin-4-yl)oxy)pyridin-3-yl)-5-(4-fluorophenyl)-1-isopropyl-4-oxo-1,4-dihydropyridazine-3-carboxamide]",1.1 to 3.3,3.3 to 10
"Nc1nccc(Oc2ccc(NC(=O)c3nn(C4CC4)cc(-c4ccc(F)cc4)c3=O)nc2)c1Cl [Compound 17, N-(5-((2-amino-3-chloropyridin-4-yl)oxy)pyridin-2-yl)-1-cyclopropyl-5-(4-fluorophenyl)-4-oxo-1,4-dihydropyridazine-3-carboxamide]",< 1.1,< 1.1
"Nc1nccc(Oc2cnc(NC(=O)c3nn(C4CC4)cc(-c4ccc(F)cc4)c3=O)nc2)c1Cl [Compound 18, N-(5-((2-amino-3-chloropyridin-4-yl)oxy)pyrimidin-2-yl)-5-(4-fluorophenyl)-1-cyclopropyl-4-oxo-1,4-dihydropyridazine-3-carboxamide]",3.3,1.1
"Nc1nccc(Oc2ccc(NC(=O)c3nn(C4CC4)cc(-c4ccc(F)cc4)c3=O)cn2)c1Cl [Compound 19, N-(6-((2-amino-3-chloropyridin-4-yl)oxy)pyridin-3-yl)-1-cyclopropyl-5-(4-fluorophenyl)-4-oxo-1,4-dihydropyridazine-3-carboxamide]",3.3 to 10,10

# More lines, now with the values ahead:
IC50 (H1299 cell pAxl) [nM],IC50 (H1299 cell pMer) [nM],Structure (SMILES)
3.3 to 10,3.3,"Cn1cc(-c2ccc(F)cc2)c(=O)c(C(=O)Nc2ccc(Oc3ccnc(N)c3Cl)cn2)n1 [Compound 33, N-(5-((2-amino-3-chloropyridin-4-yl)oxy)pyridin-2-yl)-5-(4-fluorophenyl)-1-methyl-4-oxo-1,4-dihydropyridazine-3-carboxamide]"
< 1.1,0.37,"C=CCn1cc(-c2ccc(F)cc2)c(=O)c(C(=O)Nc2ccc(Oc3ccnc(N)c3Cl)cn2)n1 [Compound 35, 1-allyl-N-(5-((2-amino-3-chloropyridin-4-yl)oxy)pyridin-2-yl)-5-(4-fluorophenyl)-4-oxo-1,4-dihydropyridazine-3-carboxamide]"
1.1,3.3,C=CCn1cc(-c2ccc(F)cc2)c(=O)c(C(=O)Nc2ncc(Oc3ccnc(N)c3Cl)cn2)n1 [Compound 37]
1.1 to 3.3,3.3 to 10,"C=CCn1cc(-c2ccc(F)cc2)c(=O)c(C(=O)Nc2ccc(Oc3ccnc(N)c3Cl)nc2)n1 [Compound 39, 1-allyl-N-(6-((2-amino-3-chloropyridin-4-yl)oxy)pyridin-3-yl)-5-(4-fluorophenyl)-4-oxo-1,4-dihydropyridazine-3-carboxamide]"
